According to paper PMC3867298 (Clinical cancer research : an official journal of the …, 2010):
Read-outs that look alike come from different tables or passages of the source. Marks after values point to notes of the source that are not given here.

Tests used:
[1] = tested on: patients with advanced solid tumors
[2] = tested on: H929 human plasmacytoma xenografts; details: vs vehicle; cited from earlier work
[3] = tested on: MDA-MB-231 breast cancer xenograft; details: MDA-MB-231 xenograft, with reduced tumor vascularization (CD31); cited from earlier work
[4] = cohort 1, 60 mg/m^2, 7 patients
[5] = cohort 2, 80 mg/m^2, 4 patients
[6] = cohort 3, 120 mg/m^2, 3 patients
[7] = cohort 4, 200 mg/m^2, 7 patients
[8] = cohort 5, 160 mg/m^2, 8 patients
[9] = expansion, 160 mg/m^2, 38 patients
[10] = treatment-related, worst grade per patient, all cycles, N = 67

## Cc1cc(Nc2cc(N3CCN(C)CC3)nc(/C=C/c3ccccc3)n2)n[nH]1 [ENMD-2076]
[1]; all patients
  Adrenal insufficiency: not observed
[1]; at the MTD of 160 mg/m^2
  Patients requiring dose reduction due to toxicity: 33%
[1]; both in the expanded 160 mg/m^2 cohort
  Patients with hypothyroidism: 2 patients
[1]; [4]
  No. of patients with DLT (cycle 1): 1 ^†
  No. of patients with dose delays: 2 (29%)
  No. patients with dose reductions: 1 (14%)
[1]; [5]
  No. of patients with DLT (cycle 1): 0
  No. of patients with dose delays: 3 (75%)
  No. patients with dose reductions: 1 (25%)
[1]; [6]
  No. of patients with DLT (cycle 1): 0
  No. of patients with dose delays: 1 (33%)
  No. patients with dose reductions: 0
[1]; [7]
  No. of patients with dose delays: 7 (100%)
  No. patients with dose reductions: 3 (43%)
[1]; [8]
  No. of patients with dose delays: 3 (38%)
  No. patients with dose reductions: 1 (13%)
[1]; expanded 160 mg/m^2 cohort
  Patients with fatigue of grade 3 to 4 severity: 2 patients
  Patients with tooth discoloration: Four
[1]; expanded 160 mg/m^2 cohort, 2 of 38
  Patients with grade 3/4 neutropenia: 5%
[1]; expanded 160 mg/m^2 cohort, 3 of 38
  Patients with grade 1/2 neutropenia: 8%
[1]; expanded 160 mg/m^2 cohort, 12/38
  Patients with fatigue: 32%
[1]; [9]
  No. of patients with DLT (met the definition of DLT): 12 ^§
  No. of patients with dose delays: 24 (63%)
  No. patients with dose reductions: 14 (37%)
[1]; in vivo
  Patients in whom hypertension resulted in dose delay or reduction: 16%
[1]; oral once daily, continuous dosing
  Recommended phase 2 dose: 160 mg/m^2
[1]; oral, continuous once daily dosing
  Maximum tolerated dose (MTD): 160 mg/m^2
[1]; range 2–60 days
  Median time to onset of hypertension following initial dosing: 14 days
[1]; total patients
  Patients with hypertension of grade 3/4 severity: 21%
[1]; [10]
  Anorexia, any grade: 24%
  Anorexia, grade 3, No. of patients: 0
  Anorexia, grade 4, No. of patients: 0
  Constipation, any grade: 15%
  Constipation, any grade, No. of patients: 10
  Constipation, grade 3, No. of patients: 0
  Constipation, grade 4, No. of patients: 0
  Dehydration, any grade, No. of patients: 12
  Dehydration, grade 3: 1%
  Dehydration, grade 3, No. of patients: 1
  Dehydration, grade 4, No. of patients: 0
  Diarrhea, any grade, No. of patients: 17
  Diarrhea, grade 3: 3%
  Diarrhea, grade 3, No. of patients: 2
  Diarrhea, grade 4, No. of patients: 0
  Dysgeusia, any grade: 10%
  Dysgeusia, any grade, No. of patients: 7
  Dysgeusia, grade 3, No. of patients: 0
  Dysgeusia, grade 4, No. of patients: 0
  Dyspnea, any grade, No. of patients: 8
  Dyspnea, grade 3: 4%
  Dyspnea, grade 3, No. of patients: 3
  Dyspnea, grade 4, No. of patients: 0
  Fatigue, any grade: 31%
  Fatigue, any grade, No. of patients: 21
  Fatigue, grade 3: 3%
  Fatigue, grade 3, No. of patients: 2
  Fatigue, grade 4, No. of patients: 0
  Glossodynia, any grade, No. of patients: 11
  Glossodynia, grade 3, No. of patients: 0
  Glossodynia, grade 4, No. of patients: 0
  Hypertension, any grade, No. of patients: 37
  Hypertension, grade 3, No. of patients: 12
  Hypertension, grade 4: 3%
  Hypertension, grade 4, No. of patients: 2
  Mucositis, any grade: 15%
  Mucositis, any grade, No. of patients: 10
  Mucositis, grade 3, No. of patients: 0
  Mucositis, grade 4, No. of patients: 0
  Nausea/vomiting, any grade, No. of patients: 26
  Nausea/vomiting, grade 3, No. of patients: 0
  Nausea/vomiting, grade 4, No. of patients: 0
  Patients reporting related adverse events, grade 3: 28%
  Patients reporting related adverse events, grade 3, No. of patients: 19
  Patients reporting related adverse events, grade 4: 9%
  Patients reporting related adverse events, grade 4, No. of patients: 6
[2]
  Tumor growth: Dose-dependent inhibition of tumor growth
[3]
  Tumor response: regressions
